One experiment deals with peptide-reactive IgG. Kind of experiment: ELISA of anti-C-35 and anti-NS5A-2132 antibody in cohort study sera of 1995 and 2002. It counts as binding, human. The settings on record: serum dilution 100:1. The method, then: Sera were obtained from 33 patients with a disease associated with HCV in the cohort study conducted between 1995 and 2002. The sera obtained from patients with chronic hepatitis (CH, n=68), liver cirrhosis (LC, n=43) and hepatic cell carcinoma (HCC, n=52) were also used in the analysis. These patients were diagnosed at the time of the first serum sampling by biochemical and histological findings, echography and computed tomography. An anti-HCV antibody was assayed using a chemiluminescence enzyme immunoassay (CLEIA) kit (Lumipulse II HCV, Fujirebio Inc., Tokyo, Japan) or the second generation or the third generation enzyme immunoassay test (SRL, Tokyo, Japan). HCV-RNA in the sera was detected using RT-PCR (SRL, Tokyo, Japan). The HCV genotype was determined by directly sequencing HCV in the sera of the patients by RT-PCR (SRL, Tokyo, Japan). The sera were also obtained from subjects who were not infected with HCV, which include 24 subjects with an autoimmune disease (6 patients with systematic lupus erythematosus, one with Behcet's disease and 17 with atopic dermatitis), 17 cases of hepatitis B virus (HBV) infection (positive for HBV surface antigen), 3 patients having human immunodeficiency virus (HIV) and 10 cases with human T cell leukemia virus type I (HTLV-1) infection.
The level of peptide-specific IgG was measured by an enzyme-linked immunosorbent assay (ELISA). […]
On the technique in general: ELISA stands for enzyme-linked immunosorbent assay.

The subject of experiment [1] is peptide-specific IgG in the serum. The experiment is described as follows: ELISA of peptide-specific IgG in sera of HCV patients and healthy donors (Example 1). The experiment is classed as binding, human. The method, boiled down:
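Sera from 12 HCV patients and 10 healthy donors, diluted 1:100–1:400, tested by ELISA on plates coated with DSS-crosslinked HLA-A2/A24-motif HCV 1b peptides (20 µg/well); HIV peptide as negative control. Incubated 2 h at 37 °C; detection via rabbit anti-human IgG, HRP-polymer anti-rabbit, TMB. Cutoff = healthy-donor mean OD ± 3 SD.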

For YLLPRRGPRL [No. 40], the “level of the anti-peptide antibody in 1995 compared with 2002” value in the experiment on peptide-reactive IgG (33 cohort patients) was “almost equal”. The “level of the anti-peptide antibody by group in 2002” value in the experiment with peptide-reactive IgG (CH, LC, HCC, recovered individuals, ASC) was “high in any of CH, LC, and HCC patients, and it became very low or undetectable in the recovered individuals”. Also, the “IgG antibody reactive to the peptide in the serum of single patients” value in experiment [1] (representative patients, FIGS. 1 and 2) is reported as “detected”. Further, the “Healthy donors (n = 10) Positive %” value in experiment [1] (share of 10 healthy donors with serum IgG reactive to the peptide, ELISA, cut-off value 1.83) is recorded as 0%. In addition, the “HCV patients (n = 12) Positive %” value in experiment [1] (share of 12 HCV patients with serum IgG reactive to the peptide, ELISA, cut-off value 1.83) turned out to be 100%.

These data come from patent US20080063643A1, “Peptide Derived From Hepatitis C Virus” (priority 2003, published 2008).
